US4714701A, “Antiviral compounds” (Burroughs Wellcome Co., priority 1985, dated 1987)
Read-outs that look alike come from different tables or passages of the source.

Tests used:
herpes simplex [1] = assay: Activity against herpes simplex (general statement); set-up: species or system herpes simplex virus
herpes simplex virus = assay: Anti-HSV activity, plaque reduction assay; assay type: cell-based
Description: The inhibiting effect of the compounds of Example 1 and 2 against herpes simplex virus were determined by the plaque reduction assay.

EBV [2] = assay: Activity against EBV infections (general statement); set-up: species or system Epstein-Barr virus
CMV = assay: Activity against CMV infections (general statement); set-up: species or system cytomegalovirus
dogs = assay: Toxicity in dogs, intravenous route; assay type: in vivo, dog; details: 60 mg/kg/day
Description: The toxicity of the compound of Example 2 was determined by administering the compound to dogs at a dosage of 60 mg/kg/day, by the intravenous route.

EBV [3] = assay: Anti-EBV activity (method described by Nonogama l. Pagano, 1971); assay type: cell-based, Epstein-Barr virus; details: human gammaherpesvirus 4
Description: The inhibitory effect of the compound of Example 2 against EBV was determined by the method described by Nonogama l. Pagano, 1971, Nature: New Biology, Vol. 233, 103-104.

herpes simplex [4] = details: prior art compound; cited from earlier work

SMILES | activity against herpes simplex (herpes simplex [1]) | IC50 (herpes simplex virus) [µM] | activity against EBV infections (EBV [2]) | activity against CMV infections (CMV) | toxic effects (dogs) | IC50 (EBV [3]) [µM] | activity against herpes simplex (herpes simplex [4])
Nc1nc2c(nc(N)n2COC(CO)CO)c(=O)[nH]1 [Example 1, 8-Amino-9-[(2-hydroxy-1-hydroxymethylethoxy)methyl]guanine] | particularly high activity | 0.5 |  |  |  |  | 
Nc1nc2c(nnn2COC(CO)CO)c(=O)[nH]1 [Example 2, 5-Amino-3,6-dihydro-3-[(2-hydroxy-1-hydroxymethylethoxy)methyl]-7H-1,2,3-triazolo[4,5-d]pyrimidin-7-one] |  | 27.4 | especially potent activity | especially potent activity | No toxic effects were noted | 1 to 10 | 
Nc1nc2c(ncn2COCCO)c(=O)[nH]1 [acyclovir, 9-(2-hydroxyethoxymethyl)guanine] |  |  |  |  |  |  | particularly good activity
